Values quoted from earlier work, collected in patent publication US7977378B1, “Compositions and methods for enhancing weight-loss by cyclical administration of compounds” (priority 2007, dated 2011).

Experiments:
[1] = up to 200 mg kg-1
adipocyte = details: in vitro
[2] = tested on: contractile responses evoked by phenylephrine and high K+; details: 4 approximately 12 microg/mL
[3] = tested on: hepatic glucose-6-phosphatase
hepatic TG = details: 60 mg/kg·day
[4] = tested on: contractile effect of noradrenaline; details: 2×10(−6) and 1×10(−7) M
[5] = tested on: endothelium-intact rat aorta; details: equal potency
[6] = tested on: guinea-pig isolated right atria

In the case of `COc1ccc([C@@H]2CC(=O)c3c(O)cc(O)cc3O2)cc1O` [hesperitin], the “Effect on intestinal transit” value [1] is listed as “no effect”.
In the case of `O=C(O)/C=C/c1cccc(O)c1` [m-coumaric acid], the “Effect on cell cycle” value (3T3-L1 preadipocytes) is listed as “cell cycle arrest in the G1 phase”.
For (−)-epigallocatechin gallate [EGCG], the Adipocyte apoptosis (adipocyte) is listed as “induced” and the “Effect on contractile responses evoked by phenylephrine and high K+” value [2] is listed as “did not affect”.
In the case of `O=C(/C=C/c1ccc(O)c(O)c1)O[C@@H]1C[C@](O)(C(=O)O)C[C@@H](O)[C@H]1O` [chlorogenic acid], the “Inhibition of hepatic glucose-6-phosphatase” value [3] is given as “selectively inhibit”, the “Level of hepatic TG” value (hepatic TG) is given as “significantly reduced” and the “Effect on cell cycle” value (3T3-L1 preadipocytes) is given as “cell cycle arrest in the G1 phase”.
For `O=C1C[C@@H](c2ccc(O)cc2)Oc2cc(O)cc(O)c21` [naringenin], the “Contractile effect of noradrenaline” value [4] is listed as “increased”.
For `Cn1c(=O)c2c(ncn2C)n(C)c1=O` [caffeine], the “Increase of energy expenditure” value (after ingestion) is listed as 13%, the “Increase of oxidative FFA disposal” value (after ingestion) is listed as 44% and the “Share of lipids oxidized” value (after ingestion) is listed as 24%. For the same compound, the “Share of lipids recycled” value (after ingestion) was 76%, the “Oxidative FFA disposal” value (after ingestion (from 236+/−21)) was 340+/−16 micro mol/min and the “Non-oxidative FFA disposal” value (after ingestion (from 455+/−66)) was 1054+/−242 micro mol/min. For the same compound, the “Increase of non-oxidative FFA disposal” value (after ingestion, P<0.01) was 2.3 fold and the “Increase of lipid turnover” value (steady state (last hour of the test) after ingestion, P<0.005) was 2 fold.
In the case of `C[n+]1c2n(c(=O)c3ccccc31)CCc1c-2[nH]c2ccccc12` [dehydroevodiamine], the Vasodilatory effect [5] is given as “vasodilatory effect”.
In the case of evodiamine, the Catecholamine secretion (bovine adrenal medulla) is given as “stimulate”, the “Insensitivity of the cells to acetylcholine or high K+ stimulation” value (bovine adrenal medulla) is given as “reversed insensitivity” and the “Inotropic and chronotropic effects” value [6] is given as “positive inotropic and chronotropic effects”. The Vasodilatory effect [5] was “vasodilatory effect”.
In the case of TNF-alpha, the Adipocyte apoptosis (adipocyte) is listed as “induced”.
In the case of `O=C(O)/C=C/c1ccccc1O` [o-coumaric acid], the “Effect on cell cycle” value (3T3-L1 preadipocytes) is listed as “cell cycle arrest in the G1 phase”.
In the case of catechin, the “Effect on intestinal transit” value [1] is listed as “no effect”.
In the case of `C=CCSSC=CC[S+]([O-])CC=C` (mixture of isomers) [ajoene], the Adipocyte apoptosis (adipocyte) is given as “induced”.
